One data set concerns CEM cell line. Kind of data set: ATP viability assay. Particulars: for CC50: Homo sapiens, CCRF-CEM, read-out: LC50. Format: cell-based. The protocol:
(§1) HL-60 (ATCC CCL-240), K562 (ATCC CCL-243), CCRF-CEM (ATCC CRM-CCL-119), and RL (ATCC CRL-2261) leukemia cell lines were obtained from the American Type Culture Collection (ATCC), Middlesex. HL-60 and K562 cell lines are deoxynucleotidyl transferase-negative (TdT^–ve), whereas CCRF-CEM cell line is TdT^+ve. They were cultured in RPMI-1640 medium (Sigma-Aldrich, U.K.), which were supplemented with 10% fetal bovine serum (FBS) (PAA Laboratories), 1% amphotericin B (5.5 mL), and 1% penicillin/streptomycin (5.5 mL) (PAA Laboratories) and grown in flasks at 37 °C in an incubator with 5% CO2. For the studies with inhibitors, the cells were treated with 10 μM nitrobenzylthioinosine (NBTI, hENT inhibitor) or 1 μM EHNA (EHNA hydrochloride) or A-134974 (A-134974 dihydrochloride hydrate) and left for 5 min before adding the drug. The cells were then incubated for 2 h at 37 °C with 5% CO2.
(§2) The amount of ATP was used as a measurement of cell number and cell viability. ATP ViaLightTM plus assay kit (Lonza: Product No. LT07-121) to detect ATP in cells treated in luminescence compatible 96-well plates (initial concentration of cells was 1 × 10^4 cells/well) with Cordycepin and ProTides at concentrations of 0, 0.1, 0.5, 1, 5, and 10 μM, followed by incubation for 72 h at 37 °C in an incubator with 5% CO2. For inhibitor studies, 10 μM NBTI or 1 μM EHNA or A-134974 was added and left for 5 min before adding the drugs. After incubation, 50 μL of cell lysis reagent was added to the 96-well plates to release the intracellular ATP, followed by 100 μL of ATP monitoring reagent (AMR). The luminescent values of each well were determined using FLUOstar OPTIMA microplate reader (BMG Labtech), which converted ATP into light using luciferase enzyme. Therefore, the amount of luminescence produced was directly proportional to the amount of ATP.

In the next data set the test system is HL-60 cell line. Kind of data set: ATP viability assay. Format: cell-based. To be noted: Homo sapiens. The protocol:
as §1, §2

The subject of a further data set is K562 cell line. As to the kind of experiment: ATP viability assay. The class given is cell-based. To be noted: Homo sapiens. The protocol:
as §1, §2

For data set [1], the system named is KG1a leukemic stem cells (Lin–/CD34+/CD38–/CD123+). As to the kind of experiment: Leukemic stem cell targeting in KG1a cultures (flow cytometry). The class given is cell-based, human. To be noted: 72 h, LSC vs bulk tumor. The protocol: The acute myeloid leukemia (AML) KG1a cell line was maintained in RPMI medium (Invitrogen, Paisley, U.K.) supplemented with 100 units/mL penicillin, 100 μg/mL streptomycin, and 20% FBS. […] In addition, control cultures were carried out to which no drug was added. The cells were subsequently harvested by centrifugation and were analyzed by flow cytometry using the Annexin V assay. All experiments were performed in triplicate. LC50 values (the concentration of compound required to kill 50% of the cells in culture) were calculated by nonlinear regression modeling using GraphPad Prism software and are shown as mean ± standard error of the mean (SEM) for each replicate data set.
Cells were then harvested, and KG1a cells were labeled with anti-CD34 (FITC), anti-CD38 (PE), and anti-CD123 (PERCP cy5). The subpopulation expressing a leukemic stem cell (LSC) phenotype was subsequently identified and was expressed as a percentage of all viable cells left in the culture. The percentages of stem cells remaining were then plotted on a dose–response graph, and the effects of the ProTides were compared with the parental nucleoside to determine if they preferentially target cancer stem cells
(In flow cytometry, cells or beads pass a laser one at a time.)

The nature of data set [2]: Metabolic stability in cryopreserved human hepatocytes. To be noted: for hepatocyte CLint at 1 μM: pH 7.3, read-out: Clint (intrinsic clearance). The class given is in vitro ADME. The protocol: The assay was contracted and performed by Cerep (Seattle, WA Laboratories, 15318 N. E. 95th Street Redmond, WA, 98052) according to the published procedure (Cerep ref 1432). Pooled cryopreserved hepatocytes were thawed, washed, and resuspended in Krebs–Heinslet buffer (pH 7.3). The reaction was initiated by adding the test compound (1 μM final concentration) into cell suspension and incubated in a final volume of 100 μL on a flat-bottom 96-well plate for 0 and 60 min, respectively, at 37 °C/5% CO2. The reaction was stopped by adding 100 μL of acetonitrile into the incubation mixture. Samples were then mixed gently and briefly on a plate shaker, transferred completely to a 0.8 mL V-bottom 96-well plate, and centrifuged at 2550g for 15 min at room temperature. Each supernatant (150 μL) was transferred to a clean cluster tube, followed by high-performance liquid chromatography–tandem mass spectrometry (HPLC-MS/MS) analysis on a Thermo Electron triple quadrupole system.

Data set [3] can be described thus: Plasma stability. The class given is in vitro ADME. Particulars: for half-life at 24 h, 20 µM: human, plasma. The protocol:
[…] After incubation, 100 μL of each sample was taken and 300 μL of 100% methanol was added and left on ice for 30 min. After 30 min, the mixture was centrifuged (14 000 rpm, 4 °C, 10 min), and the supernatant was transferred to new tubes and evaporated under SpeedVac. Then, the dried extract was reconstituted in 100 μL of 10% acetonitrile, then transferred to LC-MS vials, and 10 μL was injected into the UPLC-MS/MS system.

Data set [4] can be described thus: Plasma stability. To be noted: mouse plasma. Format: in vitro ADME. The protocol: (§3) Plasma samples (10 mL of human, beagle dog, mouse, or rats from Sera laboratories, U.K.) were treated with and without 1 μM of EHNA, after which 20 μM concentration of each drug (3′dA and ProTides) was added and incubated for 2 h at 37 °C with 5% CO2. After incubation, 100 μL of each sample was taken and 300 μL of 100% methanol was added and left on ice for 30 min. After 30 min, the mixture was centrifuged (14 000 rpm, 4 °C, 10 min), and the supernatant was transferred to new tubes and evaporated under SpeedVac. Then, the dried extract was reconstituted in 100 μL of 10% acetonitrile, then transferred to LC-MS vials, and 10 μL was injected into the UPLC-MS/MS system.

A short description of data set [5]: Plasma stability. Format: in vitro ADME, beagle dog. To be noted: dog plasma, with or without EHNA. The protocol:
as §3

Where [6] appears, read: pH 7.3, read-out: t1/2 (half-life).

Read-outs that look alike come from different tables or passages of the source.

Consider `C[C@H](NP(=O)(OC[C@@H]1C[C@@H](O)[C@H](n2cnc3c(N)ncnc32)O1)Oc1ccccc1)C(=O)OCc1ccccc1` (stereo partly drawn) [Compound 7a, (Rp)- and (Sp)-3′-Deoxyadenosine 5′-O-phenyl-(benzoxy-L-alaninyl)-phosphate], for which the “LC50 change on ADA inhibition by EHNA” value with CEM cell line (CEM) was “did not lead to any LC50 changes”. Also, the CC50 was 0.87 µM with CEM cell line (72 h); 1.4 µM in the data set with CEM cell line; 4.6 µM in the data set with HL-60 cell line (HL-60, 72 h, read-out: LC50); 2.4 µM in the data set on K562 cell line (K562, 72 h, read-out: LC50). The “effect on proportion of leukemic stem cells (LSCs)” value in data set [1] is on record as “significantly reducing the LSC population to a greater extent than the parent nucleoside at concentrations above 1 μM”. Besides, the hepatocyte CLint at 1 μM in data set [2] (pooled cryopreserved hepatocytes) worked out at 22.6 µL/min/1e6 cells. The half-life at 1 h, 1 µM in data set [2] (pooled cryopreserved hepatocytes, pH 7.3, read-out: t1/2 (half-life)) came out at 48.1 min. For the same compound, the results for the “concentration detected after 30 s of incubation” value in the data set “Plasma stability [3]” (human plasma) and in the data set “Plasma stability [4]” were 10000 ng/mL and 0.5 ng/mL, respectively. For the same compound, the “change in plasma concentration” value in “Plasma stability [3]” (human plasma, up to 4 h) is on record as “no change in plasma concentration”. Moreover, the stability in plasma entry in the data set “Plasma stability [5]” is “like those found in human plasma”.

For the compound `CCOC(=O)CCc1ccccc1OP(=O)(N[C@@H](C)C(=O)OCc1ccccc1)OC[C@@H]1C[C@@H](O)[C@H](n2cnc3c(N)ncnc32)O1` (stereo partly drawn) [Compound 7e], the CC50 in the data set on CEM cell line (72 h) is 4.3 µM; with HL-60 cell line (HL-60, Table S2, no inhibitors, 72 h, read-out: LC50 (the source's name)), 8.3 µM; in the data set with K562 cell line (K562, Table S2, no inhibitors, 72 h, read-out: LC50 (the source's name)), 6.3 µM. The hepatocyte CLint at 1 μM in data set [2] was 41.1 µL/min/1e6 cells. The half-life at 1 μM in data set [2] (setting [6]) was 26 min. The half-life at 1 h, 1 µM in data set [2] (setting [6]) turned out to be 25.6 min.

Turning to `Nc1ncnc2c1ncn2[C@@H]1O[C@H](CO)C[C@H]1O` [3′-dA, 3′-Deoxyadenosine, reference compound], the “improvement of LC50 on inhibition of ADA with EHNA” value with CEM cell line (CEM) came to 16 fold. Also, the CC50 in the data set with CEM cell line (72 h) is 19.5 µM; in the data set with CEM cell line, 11.5 µM; in the data set with HL-60 cell line (HL-60, 72 h, read-out: LC50), 11.4 µM; in the data set with K562 cell line (K562, 72 h, read-out: LC50), 10.9 µM. Besides, in data set [1], the “effect on proportion of leukemic stem cells (LSCs)” value was “increased selectivity and potency against the putative leukemic stem cells”. Also, in the data set “Plasma stability [3]” (human plasma, with EHNA), the “remaining after 24 h” value amounted to 42.1%. Besides, the “time until completely metabolized” value in “Plasma stability [3]” (human plasma, without EHNA) was found to be 4 h. In addition, the half-life at 24 h, 20 µM in the data set “Plasma stability [3]” (with EHNA) was determined as 252 min; in “Plasma stability [3]” (without EHNA) it was 62 min. The half-life at 20 μM in the data set “Plasma stability [4]” turned out to be 25 min. Also, the stability in plasma result in “Plasma stability [5]” is “like those found in human plasma”.

The record behind these values is publication PMC9743095 (Journal of Medicinal Chemistry, 2022).
